Measured values: paper PMC8224697 (Marine Drugs, 2021)
≈ marks a conversion by molar mass, not a printed value. Entries after “also recorded” stand apart in the source; their conditions may differ. Read-outs that look alike come from different tables or passages of the source.

What was measured:
[1] = target: T1, recombinant ICL cloned from C. albicans ATCC10231 (Candida albicans, UniProt Q9P8Q7); assay: ICL inhibition assay (glyoxylate phenylhydrazone formation, A324 nm); format: biochemical; conditions: for IC50: purified recombinant ICL, n = 3
T1 construct: made in house
Protocol: The preparation of recombinant ICL cloned from C. albicans ATCC10231 was performed as described previously. The inhibitory activities of secoemestrin C (1), dethiosecoemestrin (2), emestrin (3), and emestrin B (4) against purified recombinant ICL were evaluated according to a previously documented procedure. The production of ICL-catalyzed glyoxylate phenylhydrazone from phenylhydrazine and isocitrate was measured using a spectrophotometer at an absorbance wavelength of 324 nm.
The preparation of the recombinant ICL protein from C. albicans ATCC10231 was performed as described in a previous paper. We used the two synthetic primers IC-1 (5′-[…]-3′) and IC-2 (5′-[…] […]-3′) to perform a PCR amplification of ICL. The ICL inhibitory activity of the test compounds were evaluated according to a previously described method. The ICL-catalyzed formation of glyoxylate phenylhydrazone from isocitrate and phenylhydrazine substrates was measured using a spectrophotometer at an absorbance wavelength of 324 nm. The inhibitory activity of the test compound was calculated relative to that of the DMSO control (n = 3). We used 3-nitropropionate as a positive control.

[2] = system: C. albicans ATCC10231; assay: microbe, parasite or virus in culture; format: cell-based, Candida albicans
Excerpt: (§1) The ICL gene was cloned from C. albicans strain ATCC10231 genomic DNA. C. albicans SC5314 (ATCC MYA-2876) (wild type), MRC10 (Δicl) (ICL-deletion mutant), MRC11 (Δicl + ICL) (ICL-complemented mutant), […], ATCC18804, and ATCC11006 were used for the growth assay. The ICL-deletion mutant strains MRC10 and MRC11 were kindly provided by Prof. Michael C. Lorenz (The University of Texas Health Science Center at Houston). Each strain was subcultured in YNB broth (Difco Laboratories, Detroit, MI, USA) supplemented with 2% glucose at 28 °C. For the ICL inhibitor addition, isolated compounds dissolved in DMSO were added to a final solvent concentration of 0.5% in all growth assays.
(§2) The antifungal activity of secoemestrin C (1), dethiosecoemestrin (2), emestrin (3), and emestrin B (4) was evaluated against C. albicans strains (SC5314, ATCC10231, ATCC10259, ATCC11006, and ATCC18804) using a previously documented procedure. The growth of C. albicans was monitored in YNB broth with glucose or potassium acetate as the carbon source. The plates were incubated at 28 °C for 3 days. […] Amphotericin B, an antifungal agent, was applied as a positive control.

[3] = system: C. albicans SC5314; assay: In vitro growth assay (MIC) in YNB broth; format: cell-based, Candida albicans; conditions: 28 °C
Excerpt: (§3) Following phagocytosis by macrophages, C. albicans undergoes a metabolic shift from glycolysis to the glyoxylate cycle, enabling cells to utilize C2 carbon sources. Therefore, we hypothesized that the ICL inhibitor reduces nutrient uptake capacity and impedes the survival of C. albicans within macrophages.
as §1, §2

[4] = system: C. albicans ATCC10259; assay: In vitro growth assay (MIC) in YNB broth; format: cell-based; conditions: Candida albicans, ATCC10259, 72 h, 28 °C
Excerpt: as §3, §1, §2

[5] = system: C. albicans ATCC11006; assay: In vitro growth assay (MIC) in YNB broth; format: cell-based; conditions: Candida albicans, ATCC11006, 72 h, 28 °C
Excerpt: as §3, §1, §2

[6] = system: C. albicans ATCC18804; assay: In vitro growth assay (MIC) in YNB broth; format: cell-based; conditions: Candida albicans, ATCC18804, 72 h, 28 °C
Excerpt: as §3, §1, §2

[7] = system: C. albicans strains (SC5314, ATCC10231, ATCC10259, ATCC11006, and ATCC18804); assay: In vitro growth assay (MIC), summary over the strain panel; format: cell-based; conditions: Candida albicans; C. albicans growing on acetate, over five strains
Protocol: as §3, §2

[8] = system: C. albicans strains SC5314 (wild type), MRC10 (Δicl), and MRC11 (Δicl + ICL); assay: Growth phenotype analysis on YNB agar plates; format: cell-based, Candida albicans; conditions: 2 days, 28 °C
Protocol: To determine the effects of secoemestrin C (1) on C. albicans growth under C2–assimilating conditions, phenotypic analyses of ICL-deletion mutants were also performed using C. albicans strains SC5314 (wild type), MRC10 (Δicl), and MRC11 (Δicl + ICL). After pre-culture, each strain was streaked onto YNB agar plates supplemented with glucose or potassium acetate with or without 64 μg/mL secoemestrin C (1).
Figure 3 Inhibitory activity of secoemestrin C (1) toward the growth and ICL mRNA expression of C. albicans. (a) C. albicans strains SC5314 (wild-type), MRC10 (Δicl), and MRC11 (Δicl + ICL) were cultured on YNB agar plates containing 2% glucose or 2% potassium acetate as a carbon source with or without 64 μg/mL secoemestrin C (1) for 2 days at 28 °C. […] ICL mRNA expression was analyzed by RT-PCR. Glyceraldehyde-3-phosphate dehydrogenase (GPDH), a housekeeping gene, was measured as a loading control.
(§4) Growth phenotype and ICL expression analysis were performed using C. albicans strains SC5314 (wild type), MRC10 (Δicl), and MRC11 (Δicl + ICL) according to a previously described method. […] Semi-quantitative RT-PCR was conducted using ICL-specific primers: 5′-[…]-3′ (forward) and 5′-TAGATTCAGCTTCA GCCATCAAAGC-3′ (reverse). The expression of the housekeeping gene glyceraldehyde-3-phosphate dehydrogenase (GPDH) was measured as a loading control.

[9] = system: ICL mRNA expression in C. albicans; assay: ICL mRNA expression by semi-quantitative RT-PCR; format: cell-based, Candida albicans; conditions: cells grown in 2% acetate with 16, 32, or 64 μg/mL compound; 4 h, 28 °C; SC5314 and MRC11
Protocol: Figure 3 Inhibitory activity of secoemestrin C (1) toward the growth and ICL mRNA expression of C. albicans. (a) C. albicans strains SC5314 (wild-type), MRC10 (Δicl), and MRC11 (Δicl + ICL) were cultured on YNB agar plates containing 2% glucose or 2% potassium acetate as a carbon source with or without 64 μg/mL secoemestrin C (1) for 2 days at 28 °C. (b) Strains were grown in YNB broth containing 2% glucose, collected by centrifugation, and transferred to YNB containing 2% glucose (Glu), 2% potassium acetate (Ace), or 2% Ace + secoemestrin C (1) (16, 32, or 64 μg/mL) and cultured for 4 h at 28 °C. ICL mRNA expression was analyzed by RT-PCR. Glyceraldehyde-3-phosphate dehydrogenase (GPDH), a housekeeping gene, was measured as a loading control.
We further investigated the effects of secoemestrin C (1) on ICL mRNA expression in C. albicans using a semi-quantitative reverse-transcription polymerase chain reaction (RT-PCR). […] GPDH expression was detected in all treatment conditions.
as §4, with “The expression of the housekeeping gene glyceraldehyde-3-phosphate dehydrogenase (GPDH) was measured as a loading control.” left out

[10] = Candida albicans, SC5314, 72 h, YNB with 2% glucose, read-out: MIC
[11] = Candida albicans, SC5314, 72 h, YNB with 2% potassium acetate, read-out: MIC
[12] = Candida albicans, ATCC10231, 72 h, ATCC10231, YNB with 2% glucose, 72 h, 28 °C, read-out: MIC
[13] = Candida albicans, ATCC10231, 72 h, ATCC10231, YNB with 2% potassium acetate, 72 h, 28 °C, read-out: MIC
[14] = Candida albicans, ATCC10231, Table 1: growth of C. albicans ATCC10231, read-out: MIC
[15] = YNB with 2% glucose, read-out: MIC
[16] = YNB with 2% potassium acetate, read-out: MIC
[17] = Candida albicans, ATCC10231, Table 1: growth of C. albicans ATCC10231

T1 sequence (Q9P8Q7 whole entry): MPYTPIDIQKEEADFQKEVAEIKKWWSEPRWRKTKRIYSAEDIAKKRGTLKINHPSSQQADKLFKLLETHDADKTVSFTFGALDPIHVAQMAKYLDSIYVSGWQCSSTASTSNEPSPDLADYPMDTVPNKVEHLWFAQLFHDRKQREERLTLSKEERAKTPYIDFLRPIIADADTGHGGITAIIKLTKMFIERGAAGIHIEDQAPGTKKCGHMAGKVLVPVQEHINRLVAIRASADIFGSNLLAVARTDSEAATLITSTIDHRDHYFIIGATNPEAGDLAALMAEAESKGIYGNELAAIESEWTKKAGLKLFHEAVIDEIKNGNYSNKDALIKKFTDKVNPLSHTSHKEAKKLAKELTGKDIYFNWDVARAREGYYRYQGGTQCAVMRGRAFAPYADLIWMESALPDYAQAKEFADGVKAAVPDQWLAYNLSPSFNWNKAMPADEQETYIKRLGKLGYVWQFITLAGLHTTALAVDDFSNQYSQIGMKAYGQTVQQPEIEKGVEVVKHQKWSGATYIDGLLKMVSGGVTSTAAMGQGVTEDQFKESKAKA

Row | Compound | IC50 [1] [µM] | MIC [3, 10] [µg/mL] | MIC [3, 11] [µg/mL] | MIC [2, 12] [µg/mL] | MIC [2, 13] [µg/mL] | MIC [2, 14] [µg/mL] | inhibitory activity toward ICL (in words) [1] | MIC [2, 17] [µg/mL] | further results
1 | O=C(O)CC[N+](=O)[O-] [3-Nitropropionate, 3-nitropropionate, reference compound] | 21.8 ± 1.38 | – | – | – | – | – | – | – | MIC ([2]; Table 1: growth of C. albicans ATCC10231): >128 µg/mL
2 | C[C@@H]1[C@H](O)[C@@H](C)/C=C/C=C/C=C/C=C/C=C/C=C/C=C/[C@H](O[C@@H]2O[C@H](C)[C@@H](O)[C@H](N)[C@@H]2O)C[C@@H]2O[C@](O)(C[C@@H](O)C[C@@H](O)[C@H](O)CC[C@@H](O)C[C@@H](O)CC(=O)O[C@H]1C)C[C@H](O)[C@H]2C(=O)O [Amphotericin B, amphotericin B, reference compound] | – | 0.5 (≈ 0.541 µM) | 0.5 (≈ 0.541 µM) | 0.5 (≈ 0.541 µM) | 0.5 (≈ 0.541 µM) | 0.5 (≈ 0.541 µM) | – | – | MIC [4, 15]: 1 µg/mL (≈ 1.08 µM); MIC [4, 16]: 0.5 µg/mL (≈ 0.541 µM); MIC [5, 15]: 0.5 µg/mL (≈ 0.541 µM); MIC [5, 16]: 0.5 µg/mL (≈ 0.541 µM); MIC [6, 15]: 1 µg/mL (≈ 1.08 µM); MIC [6, 16]: 1 µg/mL (≈ 1.08 µM)
3 | COc1ccc(C(=O)O[C@H]2C=COC=C3C=C4C(=O)N(C)C(=O)C(=O)N4[C@@H]32)cc1Oc1cc(C=O)ccc1O [Dethiosecoemestrin (2), dethiosecoemestrin] | > 241 | > 128 | – | – | – | > 128 | no inhibitory activity | – | –
4 | COc1ccc2cc1Oc1cc(ccc1O)C(O)C13SSC4(C(=O)N1C)C(O)C1=COC=CC(OC2=O)C1N4C3=O (stereo not drawn) [Emestrin (3), emestrin] | > 214 | > 128 | – | – | – | – | not inhibitors of ICL | > 128 | inhibitory activity toward ICL (in words) ([1]; listed as emestrin (3)): no inhibitory activity
5 | COc1ccc2cc1Oc1cc(ccc1O)C(O)C13SSSC4(C(=O)N1C)C(O)C1=COC=CC(OC2=O)C1N4C3=O (stereo not drawn) [Emestrin B (4), emestrin B] | > 203 | > 128 | – | – | – | – | no inhibitory activity; also recorded: not inhibitors of ICL | > 128 | –
6 | COc1ccc(C(=O)O[C@H]2C=COC=C3[C@@H](O)[C@]45SSSS[C@H](C(=O)N4[C@@H]32)N(C)C5=O)cc1Oc1cc(C=O)ccc1O [Secoemestrin C (1), secoemestrin C] | 4.77 ± 0.08 | > 128 | 64 (≈ 96.6 µM) | > 128 | 64 (≈ 96.6 µM) | > 128 | – | – | reversibility of binding to the enzyme ([1]; enzyme activity not recovered by dialysis within 1 h): irreversible; ICL inhibition mechanism ([1]; kinetic analysis, Lineweaver–Burk plot): uncompetitive inhibitor; MIC ([3]; YNB with 2% glucose, 72 h): >128 µg/mL; MIC ([4]; YNB with 2% glucose): > 128 µg/mL; MIC ([4]; YNB with 2% potassium acetate): 32 µg/mL (≈ 48.3 µM); MIC ([5]; YNB with 2% glucose): > 128 µg/mL; MIC ([5]; YNB with 2% potassium acetate): 64 µg/mL (≈ 96.6 µM); MIC ([6]; YNB with 2% glucose): > 128 µg/mL; MIC ([6]; YNB with 2% potassium acetate): 64 µg/mL (≈ 96.6 µM); MIC [7]: 32 to 64 µg/mL (≈ 48.3 to 96.6 µM); growth phenotype ([8]; 2% glucose plus 64 μg/mL compound, all strains): normal phenotypes; growth phenotype ([8]; 2% potassium acetate plus 64 μg/mL compound): failed to grow; also recorded: no growth; intensity of the PCR band corresponding to the ICL product (ICL mRNA) [9]: decreased
